Assay results taken from paper PMC6199744, “Development of Chemical Proteomics for the Folateome and Analysis of the Kinetoplastid Folateome” (ACS Infectious Diseases, 2018).
Like-named read-outs stand apart in the source and are kept apart here.

What was measured:
Format in all cases: binding
[1] = target: T1, HeLa cell extract proteins (Homo sapiens, UniProt O75489); details: HeLa; protein NDUFS3
T1 construct: endogenous in cells; host or cells: HeLa cell extract

[2] = target: T2, HeLa cell extract proteins (Homo sapiens, UniProt A0FGR8); details: HeLa; protein FAM62B
T2 construct: endogenous in cells; host or cells: HeLa cell extract
T2 sequence (A0FGR8 1-921): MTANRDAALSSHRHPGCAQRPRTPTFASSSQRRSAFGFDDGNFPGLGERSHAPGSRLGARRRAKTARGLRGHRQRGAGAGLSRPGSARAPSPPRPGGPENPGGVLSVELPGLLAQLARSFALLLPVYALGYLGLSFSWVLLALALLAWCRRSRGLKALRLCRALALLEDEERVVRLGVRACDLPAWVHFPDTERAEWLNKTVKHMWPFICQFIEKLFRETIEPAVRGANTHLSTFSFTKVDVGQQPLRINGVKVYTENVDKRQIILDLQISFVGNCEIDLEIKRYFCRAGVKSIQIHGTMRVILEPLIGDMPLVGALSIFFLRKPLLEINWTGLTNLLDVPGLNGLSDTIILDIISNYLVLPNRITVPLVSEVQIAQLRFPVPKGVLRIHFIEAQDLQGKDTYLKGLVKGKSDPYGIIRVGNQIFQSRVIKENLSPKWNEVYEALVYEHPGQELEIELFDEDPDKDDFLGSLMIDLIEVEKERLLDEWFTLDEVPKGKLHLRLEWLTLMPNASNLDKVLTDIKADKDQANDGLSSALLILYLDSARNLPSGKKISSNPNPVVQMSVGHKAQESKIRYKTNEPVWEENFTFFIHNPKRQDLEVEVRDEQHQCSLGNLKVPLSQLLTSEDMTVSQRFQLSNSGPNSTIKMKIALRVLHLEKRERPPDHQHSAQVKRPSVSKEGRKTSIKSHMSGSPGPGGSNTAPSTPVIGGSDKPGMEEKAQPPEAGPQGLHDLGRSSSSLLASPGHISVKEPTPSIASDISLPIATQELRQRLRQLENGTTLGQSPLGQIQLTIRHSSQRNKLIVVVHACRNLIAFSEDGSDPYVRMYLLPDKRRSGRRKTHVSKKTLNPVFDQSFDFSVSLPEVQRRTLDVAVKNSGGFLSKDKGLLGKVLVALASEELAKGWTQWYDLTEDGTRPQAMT

[3] = target: T3, HeLa cell extract proteins (Homo sapiens, UniProt O15111); details: HeLa; protein CHUK
T3 construct: endogenous in cells; host or cells: HeLa cell extract
T3 sequence (O15111 1-745): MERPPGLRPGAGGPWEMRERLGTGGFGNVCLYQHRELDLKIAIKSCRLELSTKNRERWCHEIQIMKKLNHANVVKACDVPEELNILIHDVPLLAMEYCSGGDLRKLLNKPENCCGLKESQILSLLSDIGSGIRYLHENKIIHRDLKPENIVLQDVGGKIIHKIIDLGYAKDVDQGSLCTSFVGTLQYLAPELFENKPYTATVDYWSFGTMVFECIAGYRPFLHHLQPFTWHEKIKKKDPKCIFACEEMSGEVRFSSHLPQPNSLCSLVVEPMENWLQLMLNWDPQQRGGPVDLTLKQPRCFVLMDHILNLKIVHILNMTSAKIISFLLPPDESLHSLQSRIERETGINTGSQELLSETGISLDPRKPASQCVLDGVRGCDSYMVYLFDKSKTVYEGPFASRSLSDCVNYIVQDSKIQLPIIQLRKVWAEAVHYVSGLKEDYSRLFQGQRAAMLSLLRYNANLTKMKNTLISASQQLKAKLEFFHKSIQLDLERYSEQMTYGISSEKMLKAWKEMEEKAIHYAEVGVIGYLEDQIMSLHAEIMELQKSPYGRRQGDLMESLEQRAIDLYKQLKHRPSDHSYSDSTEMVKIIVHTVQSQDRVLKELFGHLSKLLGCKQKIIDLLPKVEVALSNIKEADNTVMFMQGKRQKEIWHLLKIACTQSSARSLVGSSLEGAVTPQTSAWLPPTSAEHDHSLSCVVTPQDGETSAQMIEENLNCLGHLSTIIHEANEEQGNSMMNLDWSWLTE

[4] = target: T4, HeLa cell extract proteins (Homo sapiens, UniProt Q9BVK8); details: HeLa; protein TMEM147
T4 construct: endogenous in cells; host or cells: HeLa cell extract
T4 sequence (Q9BVK8 1-224): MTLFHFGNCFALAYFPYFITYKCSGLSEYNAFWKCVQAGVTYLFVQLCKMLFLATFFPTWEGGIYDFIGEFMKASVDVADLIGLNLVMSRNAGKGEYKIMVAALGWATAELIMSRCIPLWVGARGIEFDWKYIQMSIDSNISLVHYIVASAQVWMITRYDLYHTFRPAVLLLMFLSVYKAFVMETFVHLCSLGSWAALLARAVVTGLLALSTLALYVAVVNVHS

[5] = target: T5, HeLa cell extract proteins (Homo sapiens, UniProt O43615); details: protein TIMM44; HeLa
T5 construct: endogenous in cells; host or cells: HeLa cell extract
T5 sequence (O43615 1-452): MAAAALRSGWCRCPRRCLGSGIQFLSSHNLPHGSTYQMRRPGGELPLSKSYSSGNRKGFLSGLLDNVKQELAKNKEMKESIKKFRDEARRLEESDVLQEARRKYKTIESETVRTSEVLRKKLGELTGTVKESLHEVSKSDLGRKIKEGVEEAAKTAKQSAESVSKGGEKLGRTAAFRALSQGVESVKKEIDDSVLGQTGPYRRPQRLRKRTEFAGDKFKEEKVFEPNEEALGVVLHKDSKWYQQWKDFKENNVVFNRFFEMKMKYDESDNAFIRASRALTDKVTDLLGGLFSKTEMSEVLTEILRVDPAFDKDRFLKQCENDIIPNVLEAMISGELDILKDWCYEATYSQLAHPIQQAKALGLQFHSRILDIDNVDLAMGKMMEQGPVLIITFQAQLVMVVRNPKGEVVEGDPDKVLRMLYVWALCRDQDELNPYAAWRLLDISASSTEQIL

[6] = target: T6, HeLa cell extract proteins (Homo sapiens, UniProt Q9Y490)
T6 construct: endogenous in cells; host or cells: HeLa cell extract
T6 sequence (Q9Y490 whole entry): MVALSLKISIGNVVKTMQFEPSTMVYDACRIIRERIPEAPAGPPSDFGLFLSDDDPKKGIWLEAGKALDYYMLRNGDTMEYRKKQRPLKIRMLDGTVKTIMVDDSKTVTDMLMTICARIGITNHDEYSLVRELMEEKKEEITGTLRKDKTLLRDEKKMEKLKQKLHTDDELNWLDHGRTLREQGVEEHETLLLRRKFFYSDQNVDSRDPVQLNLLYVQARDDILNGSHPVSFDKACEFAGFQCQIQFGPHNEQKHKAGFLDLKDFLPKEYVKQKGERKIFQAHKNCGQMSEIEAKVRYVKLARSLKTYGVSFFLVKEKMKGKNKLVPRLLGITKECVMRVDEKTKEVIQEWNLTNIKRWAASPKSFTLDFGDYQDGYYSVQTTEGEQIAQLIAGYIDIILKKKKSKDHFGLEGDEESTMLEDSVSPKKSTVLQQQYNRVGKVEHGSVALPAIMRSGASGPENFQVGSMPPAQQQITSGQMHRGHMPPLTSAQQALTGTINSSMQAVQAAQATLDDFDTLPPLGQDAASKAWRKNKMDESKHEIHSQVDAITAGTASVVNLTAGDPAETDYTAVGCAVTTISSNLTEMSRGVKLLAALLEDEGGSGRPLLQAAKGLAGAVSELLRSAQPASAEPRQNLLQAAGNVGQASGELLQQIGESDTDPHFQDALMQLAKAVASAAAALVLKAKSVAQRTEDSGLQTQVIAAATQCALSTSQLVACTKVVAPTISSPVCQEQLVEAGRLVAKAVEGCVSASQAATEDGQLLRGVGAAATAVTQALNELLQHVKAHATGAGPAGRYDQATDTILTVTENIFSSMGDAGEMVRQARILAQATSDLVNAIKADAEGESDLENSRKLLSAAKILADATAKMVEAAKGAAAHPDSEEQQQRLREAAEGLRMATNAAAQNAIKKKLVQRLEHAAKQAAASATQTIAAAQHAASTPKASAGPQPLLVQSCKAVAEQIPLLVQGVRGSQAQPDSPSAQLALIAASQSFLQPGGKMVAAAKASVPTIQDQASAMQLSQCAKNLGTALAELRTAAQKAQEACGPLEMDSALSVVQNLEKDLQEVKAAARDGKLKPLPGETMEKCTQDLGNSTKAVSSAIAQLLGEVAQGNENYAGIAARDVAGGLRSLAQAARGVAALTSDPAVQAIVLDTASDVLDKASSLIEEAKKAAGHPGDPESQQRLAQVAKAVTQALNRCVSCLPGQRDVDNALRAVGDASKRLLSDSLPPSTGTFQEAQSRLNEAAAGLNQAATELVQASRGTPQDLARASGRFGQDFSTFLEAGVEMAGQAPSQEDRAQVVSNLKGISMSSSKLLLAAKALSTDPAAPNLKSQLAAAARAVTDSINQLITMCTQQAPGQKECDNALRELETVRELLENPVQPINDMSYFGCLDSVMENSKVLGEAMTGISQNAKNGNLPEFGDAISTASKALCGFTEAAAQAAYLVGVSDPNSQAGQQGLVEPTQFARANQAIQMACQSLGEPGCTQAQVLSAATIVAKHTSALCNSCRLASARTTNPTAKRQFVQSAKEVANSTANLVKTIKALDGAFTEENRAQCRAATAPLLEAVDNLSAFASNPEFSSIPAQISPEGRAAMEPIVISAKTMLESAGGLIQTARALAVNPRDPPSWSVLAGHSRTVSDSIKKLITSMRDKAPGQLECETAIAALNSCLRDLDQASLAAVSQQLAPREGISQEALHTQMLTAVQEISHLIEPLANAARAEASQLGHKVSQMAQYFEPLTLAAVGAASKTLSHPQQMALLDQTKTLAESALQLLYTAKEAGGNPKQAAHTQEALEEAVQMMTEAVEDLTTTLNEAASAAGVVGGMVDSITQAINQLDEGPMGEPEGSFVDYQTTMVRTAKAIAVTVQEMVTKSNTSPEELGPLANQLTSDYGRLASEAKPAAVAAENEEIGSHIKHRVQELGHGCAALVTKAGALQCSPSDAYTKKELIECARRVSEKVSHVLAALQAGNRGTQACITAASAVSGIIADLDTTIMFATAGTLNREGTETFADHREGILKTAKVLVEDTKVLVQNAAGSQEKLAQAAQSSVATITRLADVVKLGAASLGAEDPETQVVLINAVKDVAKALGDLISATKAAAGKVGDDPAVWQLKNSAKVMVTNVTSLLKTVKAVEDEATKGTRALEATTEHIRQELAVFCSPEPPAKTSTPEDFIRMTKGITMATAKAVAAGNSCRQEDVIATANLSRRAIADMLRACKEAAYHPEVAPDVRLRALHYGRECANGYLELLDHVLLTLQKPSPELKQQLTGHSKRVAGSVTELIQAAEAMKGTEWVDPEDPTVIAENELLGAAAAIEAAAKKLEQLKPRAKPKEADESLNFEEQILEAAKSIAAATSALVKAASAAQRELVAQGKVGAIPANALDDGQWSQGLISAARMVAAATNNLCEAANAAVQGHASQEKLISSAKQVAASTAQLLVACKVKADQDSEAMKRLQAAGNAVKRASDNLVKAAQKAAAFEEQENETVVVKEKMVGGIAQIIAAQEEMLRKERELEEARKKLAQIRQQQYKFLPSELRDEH

[7] = target: T7, HeLa cell extract proteins (Homo sapiens, UniProt P12268)
T7 construct: endogenous in cells; host or cells: HeLa cell extract

T1 sequence (O75489 37-264): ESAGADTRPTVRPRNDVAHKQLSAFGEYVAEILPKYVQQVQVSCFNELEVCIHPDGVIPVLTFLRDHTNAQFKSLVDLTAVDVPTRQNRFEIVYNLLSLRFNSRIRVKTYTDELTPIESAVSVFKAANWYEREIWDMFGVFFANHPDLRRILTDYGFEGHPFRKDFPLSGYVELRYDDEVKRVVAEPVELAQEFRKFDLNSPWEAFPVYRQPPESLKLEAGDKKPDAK

SMILES | fold changes relative to vehicle control [1] | fold changes relative to vehicle control [2] | fold changes relative to vehicle control [3] | fold changes relative to vehicle control [4] | fold changes relative to vehicle control [5] | fold changes relative to vehicle control ([6]; protein TLN1, HeLa) | fold changes relative to vehicle control ([7]; HeLa, protein IMPDH2) | fold changes relative to vehicle control [6] | fold changes relative to vehicle control [7]
Nc1nc2cccc(-c3ccccc3)c2n1Cc1ccc(Cl)c(Cl)c1 [compound 3] | 0.86 | 0.96 | 0.9 | 0.96 | 1.03 | – | – | – | –
CCCCCCOc1ccc(Cc2cnc(N)nc2N)cc1 [compound 1] | 1.05 | 0.82 | 0.98 | 0.72 | 1.06 | – | – | – | –
NCCCNc1ccc(C(=O)NC(CCC(=O)O)C(=O)O)cc1 (centres unmarked) [compound 7] | – | – | – | – | – | 0.78 | 1.03 | – | –
CCCCCCOc1cccc(Cc2cnc(N)nc2N)c1 [compound 2] | 1.19 | 1.29 | 1.04 | 0.97 | 1.29 | – | – | – | –
NCCOCCOCC(=O)Nc1nc2ncc(CNc3ccc(C(=O)NC(CCC(=O)O)C(=O)O)cc3)nc2c(=O)[nH]1 (centres unmarked) [compound 6] | – | – | – | – | – | 0.72 | 1.18 | – | –
Nc1nc2[nH]cc(CCc3ccc(C(=O)N[C@@H](CCC(=O)O)C(=O)O)cc3)c2c(=O)[nH]1 [PTX, pemetrexed] | – | – | – | – | – | – | – | 1.01 | 0.97
Nc1nc2c(c(=O)[nH]1)N(C=O)C(CNc1ccc(C(=O)N[C@@H](CCC(=O)O)C(=O)O)cc1)CN2 (some centres unmarked) [LEU, leucovorin] | – | – | – | – | – | 0.67 | 1.06 | – | –
